Among the data in ChEMBL document CHEMBL1146450, “Ponicidin and oridonin are responsible for the antiangiogenic activity of Rabdosia rubescens, a constituent of the herbal supplement PC SPES” (J Nat Prod, 2004) are Activity and IC50 values, retold here.

Calls of active or inactive are those of the source. The calls are words filed in the database; no cut-off is given here.

Experiment [1] relates to HMEC-1. Briefly: Antiangiogenic activity in HMEC1 cells assessed as inhibition of capillary-like network formation at 1.5 ug/ml after 18 hrs. It is filed as functional, cell-based. To be noted: Homo sapiens.
Experiment [2] deals with HMEC-1. As to the kind of experiment: Antiangiogenic activity in HMEC1 cells assessed as inhibition of capillary-like network formation at 2.5 ug/ml after 18 hrs. It counts as functional, cell-based. To be noted: Homo sapiens.
A short description of experiment [3]: Cytotoxicity against HMEC1 cells by resazurin assay. The conditions noted are these: Homo sapiens, HMEC-1. It counts as cell-based. (In general: The colour change of resazurin is a common sign of viable cells or microbes.)

Take `C=C1C(=O)[C@@]23[C@@H]4OC5O[C@@]2(O)[C@@H](O)[C@@H]2C(C)(C)CC[C@@H](O)[C@]52[C@@H]3CC[C@@H]14`: the result in experiment [1] and in experiment [2] was Active.
`C=C1C(=O)[C@]23[C@H](O)[C@H]1CC[C@H]2[C@@]12CO[C@]3(O)[C@@H](O)[C@@H]1C(C)(C)CC[C@@H]2O` [ORIDONIN]: the result in experiment [1] and in experiment [2] was Active. This compound came in with an IC50 in experiment [3] above 4 µg/mL.

For orientation: IC50 means the concentration at which inhibition is half-maximal. Read a low IC50 as greater potency.
